One assay has as its system ob/ob mice. Kind of assay: Glucose and insulin tolerance, plasma insulin, food intake, body weight in ob/ob mice treated with BT2. The class given is in vivo, mouse. As to conditions: BT2 40 mg/kg/day. How it is done:
(§1) Animals were euthanized using carbon dioxide asphyxiation followed by cervical dislocation and then dissected. Blood was harvested by cardiac puncture and centrifuged to isolate plasma which was stored at −80° C. Acidified citrate dextrose was used as an anticoagulant. Immediately after blood collection, heart, liver, kidneys, and both hind leg quadriceps muscles were removed and snap frozen in liquid nitrogen.
(§2) Mice were fasted for 6 hours. For insulin tolerance test, mice were injected (intraperitoneal) with insulin (0.75 U/kg body weight). For glucose tolerance test, mice were injected intraperitoneally with D-glucose (2 g/kg body weight). Experiments were performed between 14:00 and 16:00. Blood was drawn 0, 15, 30, 60, and 120 min after insulin or glucose administration. Blood glucose concentrations were measured through tail bleeding before and at the times indicated after injection. Blood glucose was measured using a portable glucometer (Johnson&Johnson). Plasma insulin and TNFα concentrations were measured by Milliplex Multiplex Immunoassay Kits MMHMAG-44K-14 (Merck Millipore, Darmstadt, Germany).

Assay [1] can be described thus: Plasma BCAA/BCKA in ob/ob mice treated with BT2. It is filed as in vivo, mouse. Particulars: BT2 40 mg/kg/day. The procedure:
as §1
(§3) The endogenous signal from blank plasma was subtracted from each point on the standard curve, and the data were plotted in GraphPad Prism. BCAA concentrations in treated samples were determined based on this standard curve.

Assay [2] has as its system BCKD. Kind of assay: BCKD activity in tissues of high-fat-diet-induced obese (DIO) mice treated with BT2. As to conditions: BT2 40 mg/kg/day 8 weeks oral gavage. It is filed as in vivo, mouse. The procedure: as §1
(§4) Assays for the BCKD activity were carried out as prescribed previously (Tso et al. (2014), supra). Briefly, frozen tissues were thawed and homogenized in a homogenizing buffer (30 mM KPi, pH 7.5, 3 mM EDTA, 5 mM DTT, 1 mM KIC, 3% fetal bovine serum, 5% Triton X-100, and 1 μM leupeptin). Samples were spun at 25,000×g and supernatants were collected. Diluted samples were placed in 24-well assay plates with assay buffer (30 mMKPi, pH7.5, 0.4 mM CoA, 3 mM NAD, 5% fetal bovine serum, 2 mM thiamine diphosphate, 2 mM MgCl2, and 65 μg of human E3). Keto [1-^14C] isovalerate substrate was added and assay plates were incubated at 37° C. for 30 min. 20% TCA solution was added to stop the reactions. Assay plates were incubated further at 37° C. for 45 min. ^14CO2 trapped on 2 M NaOH soaked filter wicks was counted in a liquid scintillation counter.

For assay [3], the system named is BCKD subunit E1α. Kind of assay: Western blot of phosphorylated E1α and BCKDK in heart post-TAC. The class given is in vivo, mouse. The procedure:
Proteins from heart tissue were harvested in buffer (50 mM HEPES [pH7.4], 150 mM NaCl, 1% NP-40, 1 mM EDTA, 1 mM EGTA, 1 mM glycerophosphate, 2.5 mM sodium pyrophosphate 1 mM Na3VO4, 20 mM NaF, 1 mM phenylmethylsulfonyl fluoride, 1 μg/mL of aprotinin, leupeptin, and pepstatin). Samples were separated on 4-12% Bis-Tris gels (Invitrogen), and transferred onto a nitrocellulose blot (Amersham). The blot was probed with the indicated primary antibodies. Protein signals were detected using HRP conjugated secondary antibodies and enhanced chemiluminescence (ECL) western blotting detection regents (Pierce). Rabbit polyclonal antisera against the E1α subunits of BCKD complex and phosphor-E1α antibodies were purchased from Abcam. PP2Cm antibody was generated in the lab.
(Immunoblotting shows a protein as a band on a membrane.)

Assay [4] is described as follows: Cardiac BCAA and BCKA assay post-TAC. It is filed as in vivo, mouse. As to conditions: post-TAC heart, BT2 6 weeks. How it is done: BCAA and BCKA concentration in mouse heart tissue were determined by mass spectrometer using the following transition s: KIC 203.1 to 161.1 (retention time: 2.91 min); KIV 189.145 to 119.2 (retention time 2.84 min); KMV 203.065 to 174.2 (retention time 2.99 min); [^13C] KIV 194.109 to 120.1 (retention time: 2.84 min). Val 174.1/72.1 (retention time 3.2 min), Leu 188.1/86.1 (retention time 5.9 min), Ile 188.2/86.1 (retention time 5.7 min).

Assay [5] is described as follows: Plasma BCAA/BCKA in DIO mice treated with BT2. The class given is in vivo, mouse. Particulars: BT2 40 mg/kg/day 8 weeks. The procedure: as §1, §3
The subject of assay [6] is BCKD. Briefly: BCKD activity in tissues of ob/ob mice treated with BT2. The class given is in vivo, mouse. Particulars: BT2 40 mg/kg/day oral gavage 10 weeks. How it is done:
as §1, §4

For assay [7], the system named is high fat diet (HFD)-induced obese (DIO) mice. Briefly: Glucose and insulin tolerance, plasma insulin in DIO mice treated with BT2. It is filed as in vivo, mouse. Particulars: BT2 40 mg/kg/day 8 weeks. How it is done: as §1, §2
Assay [8] deals with BCKD subunit E1α. Kind of assay: Immunoblot of phosphorylated BCKD subunit E1α in heart of BT2-treated mice. It is filed as in vivo, mouse. Particulars: wild-type mice, BT2 40 mg/kg/d oral gavage vs vehicle. How it is done:
PP2Cm germ-line knockout (PP2Cm-KO) mice were generated as previously described (Lu et al. (2009), supra). PP2Cm KO mice were backcrossed for more than 8 generations into a C57BL/6 background. Wild type C57BL/6 mice and PP2Cm KO mice were housed at 22° C. with a 12-hour light, 12-hour dark cycle with free access to water and standard chow. Studies were performed with male mice. Human cohorts of dilated cardiomyopathy and controls were obtained from Columbia and Duke with Institutional Review Board approval. All animal procedures were carried out in accordance with the guidelines and protocols approved by the University of California at Los Angeles Institutional Animal Care and Use Committee (IACUC). Transaortic constriction (TAC) and cardiac echocardiography were performed as reported earlier 17 on mice from different genotypes between 14 and 16 weeks of age. […]
Proteins from heart tissue or cells were harvested in buffer (50 mM HEPES (pH7.4), 150 mM NaCl, 1% NP-40, 1 mM EDTA, 1 mM EGTA, 1 mM glycerophosphate, 2.5 mM sodium pyrophosphate, 1 mM Na3VO4, 20 mM NaF, 1 mM phenylmethylsulfonyl fluoride, 1 μg/mL of aprotinin, leupeptin, and pepstatin). […] Protein signals were detected using HRP conjugated secondary antibodies and enhanced chemiluminescence (ECL) western blotting detection regents (Pierce). […]

Assay [9] has as its system BCKD. Kind of assay: BCKD activity in mouse cardiac tissue. It is filed as in vivo. Particulars: BT2 vs vehicle. The procedure:
PP2Cm germ-line knockout (PP2Cm-KO) mice were generated as previously described (Lu et al. (2009), supra). PP2Cm KO mice were backcrossed for more than 8 generations into a C57BL/6 background. Wild type C57BL/6 mice and PP2Cm KO mice were housed at 22° C. with a 12-hour light, 12-hour dark cycle with free access to water and standard chow. Studies were performed with male mice. Human cohorts of dilated cardiomyopathy and controls were obtained from Columbia and Duke with Institutional Review Board approval. All animal procedures were carried out in accordance with the guidelines and protocols approved by the University of California at Los Angeles Institutional Animal Care and Use Committee (IACUC). Transaortic constriction (TAC) and cardiac echocardiography were performed as reported earlier 17 on mice from different genotypes between 14 and 16 weeks of age. […] Measurements of BCKD activity in mouse cardiac tissue and plasma BCKA/BCAA concentrations were performed as previously described (Tso et al. (2014), supra).

For `O=C(O)c1sc2cc(Cl)ccc2c1Cl` [BT2, 3,6-dichlorobenzo[b]thiophene-2-carboxylic acid], in the assay with ob/ob mice, the glucose tolerance entry is “significantly improved”, the hyperinsulinemia result is on record as “attenuation” and the insulin sensitivity entry is given as “significantly improved”. Also, in assay [1], the “magnitudes of reductions in plasma BCKA concentrations (vs BCAA)” value is on record as “far more pronounced” and the “plasma BCAA levels” value is given as “significantly lowered”. For the same compound, the “BCKD activity in heart, muscle liver and kidney” value in the assay with BCKD [2] is listed as “augments”. The “cardiac BCAA catabolic activities post-TAC” value with BCKD subunit E1α [3] (intragastric, six weeks) is “enhanced”. Also, in the assay on BCKD subunit E1α [3] (post-TAC heart, BT2 40 mg/kg/day 6 weeks vs vehicle), the “BCKDK mediated E1α phosphorylation” value is “significantly reduced”. The BCKDK protein expression result in the assay on BCKD subunit E1α [3] (post-TAC heart, BT2 vs vehicle) is listed as “insignificant effect”. For the same compound, the “cardiac intra-tissue concentrations of BCAA and BCKA” value in assay [4] is on record as “significant reduced”. In addition, the “plasma BCAA/BCKA levels” value in assay [5] is reported as “lowers”. In the assay with BCKD [6], the “BCKD activity in different tissues including white adipose tissues” value is on record as “significantly enhanced”. In addition, in assay [7], the glucose tolerance entry is reported as “improved”, the hyperinsulinemia entry is listed as “improved” and the insulin sensitivity entry is listed as “improved”. Moreover, in the assay with BCKD subunit E1α [8], the “phosphorylation of BCKD subunit E1α in heart” value is “significantly reduced”. In the assay on BCKD [9] (PP2Cm-KO mice), the “enhancement of cardiac BCKD activity” value is roughly 9 fold. Also, the “enhancement of cardiac BCKD activity” value in the assay with BCKD [9] (wild-type mice) was roughly 7 fold.

The values are drawn from patent US20210278391A1, “COMPOSITIONS AND METHODS FOR TREATING CARDIOVASCULAR AND METABOLIC CONDITIONS” (The Regents of the University of California, priority 2017, published 2021).
